The values that follow are results of earlier work, collected in patent US20200283482A1, “BICYCLIC PEPTIDE LIGAND PRR-A CONJUGATES AND USES THEREOF” (BicycleRD Limited, priority 2017, published 2020).

This series concerns the target hemopexin domain of MT1 (Homo sapiens, UniProt P50281). Particulars: MT1-MMP binder formed with TBMB scaffold, as described in WO 2016/067035; cited from earlier work.

In general, Kd refers to the concentration at which binding is half-saturated. Turning to “βAla-Sar10-A-C(D-Ala)NE(1Nal)(D-Ala)CEDFYD(tBuGLy)C [17-69-07-N241]”, the Kd was 1.2 nM.
